The values that follow come from patent US6281234A, “(2-Acylaminothiazole-4-yl)acetic acid derivative” (American Home Products Corporation, priority 1999, dated 2001).

The test deals with T1, Recombinant Rat Protein Tyrosine Phosphatase 1B (rPTP1B) (Rattus norvegicus, UniProt P20417).
T1 construct: laboratory of Dr. Barry Goldstein, Thomas Jefferson University (obtained from, not a commercial purchase)
T1 sequence (P20417 1-432): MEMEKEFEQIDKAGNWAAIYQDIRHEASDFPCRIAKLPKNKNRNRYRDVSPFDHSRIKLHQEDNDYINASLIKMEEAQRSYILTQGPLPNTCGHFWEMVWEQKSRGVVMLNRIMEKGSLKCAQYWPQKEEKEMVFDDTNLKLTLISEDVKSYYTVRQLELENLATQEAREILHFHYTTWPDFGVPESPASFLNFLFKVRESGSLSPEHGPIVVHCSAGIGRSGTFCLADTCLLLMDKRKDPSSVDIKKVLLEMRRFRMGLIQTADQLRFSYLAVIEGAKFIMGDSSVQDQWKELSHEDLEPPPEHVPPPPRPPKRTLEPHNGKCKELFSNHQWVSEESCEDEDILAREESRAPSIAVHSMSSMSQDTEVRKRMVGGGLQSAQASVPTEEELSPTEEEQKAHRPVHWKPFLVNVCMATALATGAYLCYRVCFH
Description: Inhibition of recombinant rat PTP1B (rPTP1B) activity using p-nitrophenylphosphate as substrate. It is filed as biochemical. To be noted: p-nitrophenyl phosphate substrate, pH 7.4, 37° C., 30 min; for inhibition at 25 µM: pH 7.4, All compounds administered at 25 μM; for % inhibition: All compounds administered at 25 μM. As for the experimental part:
Inhibition of Recombinant Rat Protein Tyrosine Phosphatase 1B (rPTP1B) Activity Using p-nitrophenylphosphate as a Substrate.
Measurement of pNPPase Activity.
The reaction is started by the addition of p-nitrophenyl phosphate and after 30 minutes at 37° C., the reaction is terminated by adding 1 ml of 0.1 N NaOH. […] The samples are read at 410 nm in a spectrophotometer and are evaluated based on a calibration curve of p-nitrophenol standard solution.
Compounds were screened robotically at a single concentration of ~25 μM. The results are expressed as percent of control, in that the amount of p-nitrophenol formed in the compound treated samples (nmol/minute/mg protein) is compared to the amount (nmol/minute/mg protein) formed in the untreated samples. p-Nitrophenylphosphatase activity is also determined in each experiment and is expressed per minute per mg protein.

A word on the inhibition: it is the relative decrease from the control value, in per cent. As a reminder, the % inhibition is the percentage by which the read-out fell short of the control.

For `CCCCCCCC/C=C\CCCCCCCC(=O)Nc1nc(CC(=O)O)cs1` [Example 1, 2-[((Z)-1-Oxo-9-octadecenyl)amino]-4-thiazoleacetic Acid], the inhibition at 25 µM is 93.4%.
In the case of `CCCCCCCC/C=C/CCCCCCCC(=O)Nc1nc(CC(=O)O)cs1` [Example 2, 2-[((E)-1-Oxo-9-octadecenyl)amino]-4-thiazoleacetic Acid], under “25 µM”, the “% inhibition” value is 93.9%.
Same read-out and setting: the value for `CCCCCCCC/C=C/CCCCCCCC(=O)Nc1nc(CC(=O)O)cs1` [Example 3] was 58.16%.
Regarding `CCCCCCCCC#CCCCCCCCC(=O)Nc1nc(CC(=O)O)cs1` [Example 4], the inhibition at 25 µM came out at 84.8%.
`CCCCCCCCCCC/C=C\CCCCC(=O)Nc1nc(CC(=O)O)cs1` [Example 5]: the inhibition at 25 µM is 95%.
For the molecule `CCCCCC/C=C\CCCCCCCC(=O)Nc1nc(CC(=O)O)cs1` [Example 6, 2-[((Z)-1-Oxo-9-hexadecenyl)amino]-4-thiazoleacetic Acid], the inhibition at 25 µM worked out at 93.8%.
Same read-out and setting: the value for `CCCCCC/C=C/CCCCCCCC(=O)Nc1nc(CC(=O)O)cs1` [Example 7, 2-[((E)-1-Oxo-9-hexadecenyl)amino]-4-thiazoleacetic Acid] was 83.8%; that for `CCCCCC/C=C/CCCCCCCCCC(=O)Nc1nc(CC(=O)O)cs1` [Example 8, 2-[((E)-1-Oxo-11-octadecenyl)amino]-4-thiazoleacetic Acid] was 96.6%.
The same measure, in the same setting: as for `CC/C=C\C/C=C\C/C=C\CCCCCCCC(=O)Nc1nc(CC(=O)O)cs1` [Example 9, 2-[((Z,Z,Z)-1-Oxo-9,12,15-octadecatrienyl)amino]-4-thiazoleacetic Acid], the figure is 92.4%.
As for `[Na+].[Na+].[Na+].[O]=[V]([O-])([O-])[O-]` [Na3 VO4, reference compound], the “% inhibition” value is 86.3%.
